Data set [1] has as its system C. elegans. Kind of data set: C. elegans pharyngeal pumping rate (LC-induced pharyngeal dysfunction). The following applies: for ROS generation and pumping dysfunction caused by cardiotoxic LC: 2 nM 1033, 50 μM TETRA or 5 mM NAC with 100 μg/mL LC. As to the method:
Worms were fed for 2 h with 100 μg/mL H7-BJ in the absence or presence of 0-25 nM 1033. Control worms received vehicle alone (dotted line). Each value is the mean±SE, n=30. […] (B) Images obtained from the overlay of a contrast phase and MitoSOX fluorescence (arrows). Scale bar 50 μm. (C) The effects of cardiotoxic LC, 1033, cardotoxic LC+1033, H2O2 and H2O2+1033 on pharyngeal function. (D) The effects of Chelex® and EDTA on LC induced pharyngeal dysfunction.
MM2-BJ (Myeloma) and H7-BJ (Cardiotoxic LC) and in 5 mM PBS, pH 7.4, were administered to worms (100 worms/100 μL) at 100 μg/mL alone or with 50 μM TETRA or 5 mM NAC. Control worms received vehicle alone (Vehicle). After incubation for 2 h in the absence of OP50 E. coli, worms were plated on NGM plates seeded with bacteria.
Bristol N2 strain, transgenic CL2070 dvIs70 Is[hsp-16.2::gfp; rol-6(su1006)], CF1553 muls84 [(pAD76) sod-3p::GFP+rol-6] and TJ356, zls356Is[daf-16::daf-16-gfp; rol-6] were obtained from the Caenorhabditis elegans Genetic Center (CGC, University of Minnesota, USA) and propagated at 20° C. on solid Nematode Growth Medium (NGM) seeded with E. coli OP50 (from CGC) for food. The effect of LC on pharyngeal behaviour was investigated (Diomede et al. 2014). Briefly, ancestral N2 and transgenic CL2070, TJ356 and CF1553 worms were incubated with 100 μg/mL LC listed in Table 1A (100 worms/100 μL) in 5 mM PBS, pH 7.4. Control worms were incubated with 5 mM PBS, pH 7.4 (Vehicle) only. After 2 h of incubation on orbital shaking, worms were transferred onto NGM plates seeded with OP50 E. coli. The pharyngeal pumping rate, measured by counting the number of times the terminal bulb of the pharynx contracted over a 1-minute interval, was scored 20 h later. Experiments were also performed by feeding worms for 2 h with 100 μg/mL of H6-BJ, H7-BJ, H18-BJ, MM2-BJ, MM4-BJ or MM7-BJ alone or with 125 μM copper (as CuSO4).
The experimental conditions of Example 4 were repeated with cardiotoxic LC H7-BJ with or without 1033, Chelex® resin or EDTA as well as 1033, H2O2 and H2O2 together with 1033.

Data set [2] deals with C. elegans. As to the kind of experiment: Pharyngeal function, drugs administered after damage by cardiotoxic LC. The following applies: H7-BJ 1.5 h. It is filed as in vivo, Caenorhabditis elegans. How it is done: Pharyngeal performance of worms fed 100 μg/mL H7-BJ (Cardiotoxic LC) for 1.5 h and then treated for 30 min with 20 µM tetracycline (TETRA), 0.5-2 nM 1033 alone or together with 20 μM TETRA. Control worms fed vehicle alone. **p<0.001, *p<0.005 vs. vehicle, ººp<0.001 vs. Cardiotoxic LC, one-way ANOVA and Bonferroni's post hoc test. §§ p<0.01 significant interaction vs. worms fed Cardiotoxic LC+ 0.5 nM 1033, two-ways ANOVA and Bonferroni's post hoc test.
To reflect circumstances most likely encountered in the clinic drugs were administered to worms when the pharynx was already damaged by cardiotoxic LC. […] Then drugs were administered for 30 min and the pumping rate was scored.
Feeding experiments in which nematodes were fed H7-BJ for 1.5 h to generate pharangeal dysfunction, subsequently 20 μM TETRA, 0.5 nM 1033, 2 nM 1033, 20 μM TETRA and 0.5 nM 1033.

The test system of the next data set is SOD-3. As to the kind of experiment: Pharyngeal expression of SOD-3::GFP in CF1553 worms. Type of data set: in vivo, Caenorhabditis elegans. Particulars: 100 μg/mL H7-BJ + 2 nM 1033, CF1553 worms. As to the method:
(§1) Transgenic worms were fed for 2 h with: Vehicle (i, 5 mM PBS, pH 7.4) 100 μg/mL MM2-BJ (ii, Myeloma), 100 μg/mL H7-BJ (iii, Cardiotoxic LC), or 2 nM 1033 (iv, Cardiotoxic LC+ 1033). (A) Images of the HSP-16.2 expression as overlays of GFP-fluorescence and light microscopy in CL2070 transgenic worms. Scale bar 50 μm. (C) Images of SOD-3 expression as GFP-fluorescence (arrows) in CF1553 transgenic worms. Scale bar 50 μm. Quantified GFP intensity in (B) CL2070 and (D) CF1553 worms in response to treatments. Fluorescence intensity in each group was calculated as mean grey value+SE based on 3 experiments, N=25. **p<0.01 vs. Vehicle and ºp<0.05 and ººp<0.01 vs. Cardiotoxic LC, one-way ANOVA and Bonferroni's post hoc test.
(§2) DAF-16::green fluorescent protein (GFP) nuclear translocation was evaluated in TJ356 nematodes. Pharyngeal expression of HSP-16.2::GFP and SOD-3::GFP was determined in CL2070 and CF1553 worms, respectively. […] Organisms were scored as positive for nuclear localization when green foci were observed throughout the entire body from head to tail and as cytosolic when DAF-16::GFP was diffuse. The number of worms with each level of translocation were counted (at least 100 worms/condition). […] Average pixel intensity values were calculated by sampling images of different animals. Mean pixel intensity for each experimental group was calculated using Cell-F software (Olympus). […]

Data set [3] concerns C. elegans. Kind of data set: Endogenous metal levels (Cu, Zn, Fe) in C. elegans. The following applies: 100 μg/mL H7-BJ + 2 nM 1033. It is filed as in vivo, Caenorhabditis elegans. How it is done:
FIG. 3 provides graphical representations of endogenous metal levels and the effects of added copper on C. elegans pharyngeal function. Worms fed with 100 μg/mL MM2-BJ (myeloma), 100 μg/mL cardiotoxic LC H7-BJ, cardiotoxic LC+ 2 nM 1033, or metal free water (vehicle) were analysed for the amount of endogenous Cu (A), Zn and Fe (B).

The subject of the next data set is H7-BJ cardiotoxic LC. As to the kind of experiment: Amplex Red H2O2 assay. It is filed as biochemical, human. The following applies: 100 μg/mL H7-BJ incubated with 2 nM 1033, room temperature. As to the method: H7-BJ and MM2-BJ proteins (100 μg/mL) in 10 mM sodium phosphate buffer (PB), pH 7.4, were incubated at room temperature in the presence or absence of 50 μM Chelex® resin or 2 nM 5,7-dichloro-8-hydroxy-2-(dimethylaminomethyl)quinoline (1033). Different times after incubation (0-2 h), 2 μL of solutions were put into a 96-well black plate, diluted 1:100 (vol/vol) with 10 mM PBS, pH 7.4, and the amount of H2O2 generated was determined by using the Amplex Red assay kit (Molecular probes, Life Technologies). To this end, 50 μL working solution of 100 μM Amplex Red and 200 mU/mL horseradish peroxidase in 10 mM PB, pH 7.4, was added to each well. The plate was shaken and incubated at room temperature for 30 min, protected from light. The fluorescence was read on a Tecan Infinite M200 microplate reader (Tecan, Austria) at excitation wavelength of 563 nm and emission wavelength of 587 nm. Averages and standard deviations were converted to H2O2 concentrations.

Another data set deals with HSP-16.2. Kind of data set: Pharyngeal expression of HSP-16.2::GFP in CL2070 worms. The following applies: 100 μg/mL H7-BJ + 2 nM 1033, CL2070 worms. Type of data set: in vivo, Caenorhabditis elegans. How it is done: as §1, §2
Another data set relates to DAF-16. Kind of data set: DAF-16::GFP nuclear translocation in TJ356 nematodes. It is filed as in vivo, Caenorhabditis elegans. The following applies: 100 μg/mL H7-BJ 2 h with 2 nM 1033, 50 μM TETRA or 5 mM NAC. How it is done:
(A) Image of DAF-16::GFP expression in control vehicle-fed and (B) cardiotoxic LC-fed worms (100 μg/mL H7-BJ for 2 h). (C-D) The subcellular distribution of DAF-16 expression in worms fed 2 h: vehicle, 100 μg/mL H7-BJ with or without 2 nM 1033, 50 μM tetracycline (TETRA) or 5 mM N-acetyl-cysteine (NAC). According to DAF-16 localization worms were divided into two phenotypes including “cytosolic” and “nuclear”. The percentage of DAF-16 localization in respect to vehicle fed worms was calculated based on 3 experiments, N=100. Mean±SE. **p<0.01 vs. vehicle, ºp<0.05 and ººp<0.01 vs. cardiotoxic LC, one-way ANOVA and Bonferroni's post hoc test. (E/F) Transgenic worms were fed with 1 mM H2O2 for 30 minutes as a positive control. DAF-16::GFP distribution (E) and HSP-16.2 and SOD-3 expression visualized by GFP-fluorescence (F).
DAF-16::green fluorescent protein (GFP) nuclear translocation was evaluated in TJ356 nematodes. Pharyngeal expression of HSP-16.2::GFP and SOD-3::GFP was determined in CL2070 and CF1553 worms, respectively. […] Organisms were scored as positive for nuclear localization when green foci were observed throughout the entire body from head to tail and as cytosolic when DAF-16::GFP was diffuse. The number of worms with each level of translocation were counted (at least 100 worms/condition). […] Average pixel intensity values were calculated by sampling images of different animals. […]

The nature of a further data set: Stability of the drug. It is filed as physicochemical.
The test system of a further data set is C. elegans N2 worms. As to the kind of experiment: C. elegans life span experiments. Type of data set: in vivo, Caenorhabditis elegans. As to the method:
N2 worms (100 worms/100 μL), at L3 larval stage, were fed for 2 h 100 μg/mL of H7-BJ alone or with 2 nM 1033. Worms were then transferred onto fresh NGM plates seeded with E. coli in the presence of the same drug concentration. Control worms were exposed, under the same conditions, to vehicle alone. After 20 h nematodes were transferred to fresh NGM plates seeded with bacteria and the number of live worms was scored (considered as day 0). To avoid overlapping generations, the worms were then transferred every day, in the absence of fluorodeoxyuridine, until they stopped laying eggs. To test the effect of repeated administration of 1033, worms were fed for 2 h 100 μg/mL of H7-BJ and 2 nM 1033 and then transferred onto fresh NGM plates seeded with E. coli in the presence of the same drug concentration. Then nematodes were transferred every day, in a new NGM plate in the presence of freshly dissolved 2 nM 1033. The number of live worms was determined for each consecutive day until all worms were dead.

pIC50: −log10 of the molar value. “Also recorded” adds a separate entry of the source.

Data on three molecules can be found in patent US11357770B2, “Method of treating immunoglobulin light chain amyloidosis” (ALTERITY THERAPEUTICS LIMITED, priority 2016, dated 2022).

The pIC50 is the negative decadic logarithm of the IC50, by convention in mol/L.

Consider `CN(C)Cc1ccc2c(Cl)cc(Cl)c(O)c2n1` [compound 1033, 5,7-dichloro-8-hydroxy-2-(dimethylaminomethyl)quinoline], for which the “pharyngeal impairment caused by all cardiotoxic LC under investigation” value with C. elegans [1] (2 nM 1033) is listed as “completely abolished”. Also, the “ROS generation and pumping dysfunction caused by cardiotoxic LC” value with C. elegans [1] is given as “capable of neutralizing”. Besides, in the data set with C. elegans [1] (1033 alone, no LC), the “pumping rate, 1033 alone” value was “did not affect”. Further, the “pharyngeal toxicity induced by exposure to exogenous H2O2” value in the data set with C. elegans [1] (H2O2 + 1033) was “did not counteract”. Moreover, the “maximal recovery of pharangeal function” value with C. elegans [2] (then 2 nM 1033) turned out to be 53%. In addition, the “restoring pharangeal function after damage by H7-BJ” value with C. elegans [2] (then 20 μM TETRA or 0.5 nM 1033 alone) is reported as “no effect”. Moreover, the “restoring pharyngeal function after damage by H7-BJ” value with C. elegans [2] (then drug 30 min, 2 nM 1033 or 20 μM TETRA) is reported as “restoring normal pharyngeal function”. The “LC-induced SOD-3 protein expression in the pharynx” value with SOD-3 is “significantly reduced”. In addition, the “cardiotoxic LC-induced elevation of copper levels in worms” value in the data set with C. elegans [3] is “counteracted”. In addition, the “H2O2 (ROS) production by H7-BJ” value in the data set on H7-BJ cardiotoxic LC was “significantly attenuated; also recorded: did prevent the increase”. The “LC-induced HSP-16.2 protein expression in the pharynx” value in the data set with HSP-16.2 is “significantly reduced”. The “activation (nuclear translocation) of DAF-16 induced by the cardiotoxic LC” value with DAF-16 is on record as “counteracted”. Besides, the “stability under physiological conditions and in a variety of standard solvents” value in the data set “Stability of the drug” was “extremely stable”. In the data set with C. elegans N2 worms (H7-BJ + 2 nM/day 1033 (repeated administration), vehicle 13 days), the median survival is given as 13 days. In addition, in the data set with C. elegans N2 worms (single dose of 1033 at 2 nM, H7-BJ-fed worms), the “protective effect on survival, single dose” value was “No protective effect”.

Consider `CC(=O)N[C@@H](CS)C(=O)O` [NAC, N-acetyl cysteine, reference compound], for which, in the data set with C. elegans [1], the “ROS generation and pumping dysfunction caused by cardiotoxic LC” value was “capable of neutralizing”. Moreover, in the data set on C. elegans [1] (100 μg/mL H7-BJ with 50 μM TETRA or 5 mM NAC, pumping 20 h after plating), the “effect on the pharyngeal pumping dysfunction caused by cardiotoxic LC” value was “protective effect”. For the same molecule, the “activation (nuclear translocation) of DAF-16 induced by the cardiotoxic LC” value in the data set with DAF-16 is “not observed”.

As to `CN(C)[C@@H]1C(O)=C(C(N)=O)C(=O)[C@@]2(O)C(O)=C3C(=O)c4c(O)cccc4[C@@](C)(O)[C@H]3C[C@@H]12` [TETRA, tetracycline, reference compound], the pIC50 in the data set with C. elegans [1] (Caenorhabditis elegans, read-out: IC50 value of TETRA (pharyngeal dysfunction)) is 4.70.
